Measurements from PubChem BioAssay (NCI).
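A five-concentration, 48-hour dose response in 96-well plates underlies each endpoint, interpolated linearly between surrounding concentrations. GI50 marks 50% less growth. TGI: concentration producing complete growth inhibition.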

Legend:
Test in all cases: NCI tumour cell line growth inhibition, 48 h
A549 NSCLC = system: A549 NSCLC
SNB-75 CNS = system: SNB-75 CNS
OVCAR-5 ovarian = system: OVCAR-5 ovarian
SNB-19 CNS = system: SNB-19 CNS
RPMI-8226 leukemia = system: RPMI-8226 leukemia
SW-620 colon = system: SW-620 colon
U251 CNS = system: U251 CNS
SK-MEL-28 melanoma = system: SK-MEL-28 melanoma
SN12C renal = system: SN12C renal
HT29 colon = system: HT29 colon

Row | Structure (SMILES) | TGI (A549 NSCLC) | TGI (SNB-75 CNS) | TGI (OVCAR-5 ovarian) | TGI (SNB-19 CNS) | TGI (RPMI-8226 leukemia) | TGI (SW-620 colon) | TGI (U251 CNS) | TGI (SK-MEL-28 melanoma) | TGI (SN12C renal) | TGI (HT29 colon) | GI50 (A549 NSCLC) | GI50 (SNB-75 CNS) | GI50 (OVCAR-5 ovarian) | GI50 (SNB-19 CNS) | GI50 (RPMI-8226 leukemia) | GI50 (SW-620 colon) | GI50 (U251 CNS) | GI50 (SK-MEL-28 melanoma) | GI50 (SN12C renal) | GI50 (HT29 colon)
1 | CCOC(=O)C1=C(C)N(NC(=O)OC)C2(N)N(NC(=O)OC)C(C)=C(C(=O)OCC)C12C#N (stereo not given) | > 100 µM | > 100 µM | > 100 µM | > 100 µM | > 100 µM | > 100 µM | > 100 µM | > 100 µM | > 100 µM | > 100 µM | – | – | – | – | – | – | – | – | – | –
2 | O=C(O)c1cc2cc(O)ccc2[nH]1 | > 100 µM | > 100 µM | > 100 µM | > 100 µM | > 100 µM | > 100 µM | > 100 µM | > 100 µM | > 100 µM | > 100 µM | > 100 µM | > 100 µM | > 100 µM | > 100 µM | > 100 µM | > 100 µM | > 100 µM | > 100 µM | > 100 µM | > 100 µM
3 | CCOC(=O)C1=C(c2ccccc2)NC(c2ccccc2)=C(C(=O)OCC)c2c1c(=O)cc[nH]c2=O | > 100 µM | > 100 µM | > 100 µM | > 100 µM | > 100 µM | > 100 µM | > 100 µM | > 100 µM | > 100 µM | > 100 µM | – | – | – | – | – | – | – | – | – | –
4 | CCOC(=O)C(O)Cc1cnc2ccccc2n1 (stereo not given) | > 100 µM | > 100 µM | > 100 µM | > 100 µM | > 100 µM | > 100 µM | > 100 µM | > 100 µM | > 100 µM | > 100 µM | – | – | – | – | – | – | – | – | – | –
5 | COc1ccc(C(=O)C/C(=N/NC(N)=S)C(=O)Nc2ccccc2)cc1 | > 100 µM | > 100 µM | > 100 µM | > 100 µM | > 100 µM | > 100 µM | > 100 µM | > 100 µM | > 100 µM | > 100 µM | – | – | – | – | – | – | – | – | – | –
6 | Cc1ccc(NC(=O)N2CCCCC2)cc1[N+](=O)[O-] | > 100 µM | > 100 µM | > 100 µM | > 100 µM | > 100 µM | > 100 µM | > 100 µM | > 100 µM | > 100 µM | > 100 µM | > 100 µM | > 100 µM | > 100 µM | > 100 µM | 90.1 µM | > 100 µM | > 100 µM | > 100 µM | > 100 µM | > 100 µM
7 | CC(C)c1ccc(/C=N/N=C(N)N)cc1 | 18.8 µM | 26 µM | 30.2 µM | 17.4 µM | 16.4 µM | 11.6 µM | 17 µM | 21 µM | 20.4 µM | 9.65 µM | 4.91 µM | 5.68 µM | 12.9 µM | 4.77 µM | 3.6 µM | 2.9 µM | 4.63 µM | 8.41 µM | 6.35 µM | 3.19 µM
8 | C=C[Si](C)(C)COC(=O)/C(C#N)=C/C=C/c1ccccc1 | > 100 µM | 94 µM | > 100 µM | > 100 µM | > 100 µM | > 100 µM | > 100 µM | > 100 µM | > 100 µM | > 100 µM | – | – | – | – | – | – | – | – | – | –
